How the values were obtained:
[1] = tested on: bedstraw; assay: Test B pre/postemergence bedstraw; assay type: in vivo, Galium aparine
Procedure, shortened: (§1)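 Response is a visual 0-to-10 score relative to untreated plants, where 0 means no effect and 10 means complete control, taken twelve to sixteen days after application. Treatments went onto soil at planting and onto foliage of 1- to 4-leaf plants, using a surfactant-containing non-phytotoxic solvent.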

[2] = tested on: wheat; assay: Test B pre/postemergence wheat; assay type: in vivo, Triticum aestivum
Procedure, shortened: as §1

[3] = tested on: cocklebur; assay: Test B pre/postemergence cocklebur; assay type: in vivo, Xanthium strumarium
Procedure, shortened: as §1

[4] = tested on: duck salad; assay: Test B flood test duck salad; assay type: in vivo, Heteranthera limosa
Procedure, shortened: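 Flood test on plants grown to the 2-leaf stage; treated plants kept in greenhouse twelve to sixteen days, then visually rated against controls on a 0 (no effect) to 10 (complete control) scale.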

[5] = tested on: pigweed; assay: Test B pre/postemergence pigweed; assay type: in vivo, Amaranthus retroflexus
Procedure, shortened: as §1

[6] = tested on: rape; assay: Test B pre/postemergence rape; assay type: in vivo, Brassica napus
Procedure, shortened: as §1

[7] = tested on: soybean; assay: Test B pre/postemergence soybean; assay type: in vivo, Glycine max
Procedure, shortened: as §1

[8] = tested on: surinam grass; assay: Test B pre/postemergence surinam grass; assay type: in vivo, Brachiaria decumbens
Procedure, shortened: as §1

[9] = tested on: velvetleaf; assay: Test B pre/postemergence velvetleaf; assay type: in vivo, Abutilon theophrasti
Procedure, shortened: as §1

[10] = tested on: morningglory; assay: Test B pre/postemergence morningglory; assay type: in vivo, Ipomoea hederacea
Procedure, shortened: as §1

[11] = tested on: corn; assay: Test B pre/postemergence corn; assay type: in vivo, Zea mays
Procedure, shortened: as §1

[12] = tested on: crabgrass; assay: Test B pre/postemergence crabgrass; assay type: in vivo, Digitaria sanguinalis
Procedure, shortened: as §1

[13] = tested on: sugar beet; assay: Test B pre/postemergence sugar beet; assay type: in vivo, Beta vulgaris
Procedure, shortened: as §1

[14] = tested on: purple nutsedge; assay: Test B pre/postemergence purple nutsedge; assay type: in vivo, Cyperus rotundus
Procedure, shortened: as §1

[15] = tested on: giant foxtail; assay: Test B pre/postemergence giant foxtail; assay type: in vivo, Setaria faberii
Procedure, shortened: as §1

[16] = Preemergence, Rate 62 g/ha, scale of 0 to 10 where 0 is no effect and 10 is complete control
[17] = Preemergence, Rate 250 g/ha, scale of 0 to 10 where 0 is no effect and 10 is complete control
[18] = Preemergence, Rate 500 g/ha, scale of 0 to 10 where 0 is no effect and 10 is complete control
[19] = Rate 62 g/ha, Postemergence, scale of 0 to 10 where 0 is no effect and 10 is complete control
[20] = Rate 125 g/ha, Postemergence, scale 0 to 10
[21] = Rate 125 g/ha, Preemergence, scale of 0 to 10 where 0 is no effect and 10 is complete control
[22] = Rate 500 g/ha, Postemergence, scale 0 to 10, 0 no effect, 10 complete control
[23] = Preemergence, Rate 31 g/ha, visual rating, scale 0 to 10 (0 no effect, 10 complete control)
[24] = Rate 31 g/ha, Postemergence, scale 0 to 10

`CC(C)N(C(=O)n1oc(=O)n(N(C)C)c1=O)c1ccccc1` [Compound 225] was tested, and the “Bedstraw plant response rating” value [1, 16] was 0, the “Bedstraw plant response rating” value [1, 17] was 0 and the “Plant response rating, Bedstraw” value [1, 18] was 2. The “Bedstraw plant response rating” value [1, 19] was 0, the “Bedstraw plant response rating” value [1, 20] was 0 and the “Bedstraw plant response rating” value [1, 21] was 0. For the same compound, the “Plant response rating (0 to 10; 0 is no effect, 10 is complete control), Bedstraw” value ([1]; Rate 250 g/ha, Postemergence) was 0, the “Bedstraw plant response rating” value [1, 22] was 0 and the “Wheat plant response rating” value [2, 23] was 0. For the same compound, the “Wheat plant response rating” value [2, 16] was 5, the “Wheat plant response rating” value [2, 17] was 8 and the “Plant response rating, Wheat” value [2, 18] was 8. For the same compound, the “Wheat plant response rating” value [2, 19] was 3, the “Wheat plant response rating” value [2, 20] was 6 and the “Wheat plant response rating” value [2, 21] was 6. For the same compound, the “Plant response rating (0 to 10; 0 is no effect, 10 is complete control), Wheat” value ([2]; Rate 250 g/ha, Postemergence) was 7, the “Wheat plant response rating” value [2, 22] was 8 and the “Cocklebur plant response rating” value [3, 23] was 0. The “Cocklebur plant response rating” value [3, 16] was 0, the “Cocklebur plant response rating” value [3, 17] was 2 and the “Plant response rating, Cocklebur” value [3, 18] was 2. For the same compound, the “Cocklebur plant response rating” value [3, 24] was 0, the “Cocklebur plant response rating” value [3, 19] was 0 and the “Cocklebur plant response rating” value [3, 20] was 0. For the same compound, the “Cocklebur plant response rating” value [3, 21] was 2, the “Plant response rating (0 to 10; 0 is no effect, 10 is complete control), Cocklebur” value ([3]; Rate 250 g/ha, Postemergence) was 0 and the “Cocklebur plant response rating” value [3, 22] was 0. The “Ducksalad plant response rating” value ([4]; Rate 62 g/ha, headed Pre-emergence (flood test species), scale 0 to 10 (0 no effect, 10 complete control)) was 0, the “Ducksalad plant response rating” value ([4]; Rate 125 g/ha, Pre-emergence, flood test species, scale 0 to 10 where 0 is no effect and 10 is complete control) was 0 and the “Ducksalad plant response rating” value ([4]; Rate 250 g/ha, Pre-emergence, flood-test species, scale 0 to 10, 0 is no effect, 10 is complete control) was 0. The “Ducksalad plant response rating” value ([4]; Rate 500 g/ha, Pre-emergence, flood test species, scale 0 to 10 (0 no effect, 10 complete control)) was 0, the “Redroot pigweed plant response rating” value [5, 23] was 6 and the “Redroot pigweed plant response rating” value [5, 16] was 6. For the same compound, the “Redroot pigweed plant response rating” value [5, 17] was 10, the “Plant response rating, Redroot pigweed” value [5, 18] was 10 and the “Redroot pigweed plant response rating” value [5, 24] was 0. For the same compound, the “Redroot pigweed plant response rating” value [5, 19] was 0, the “Redroot pigweed plant response rating” value [5, 20] was 0 and the “Redroot pigweed plant response rating” value [5, 21] was 7. The “Plant response rating (0 to 10; 0 is no effect, 10 is complete control), Redroot pigweed” value ([5]; Rate 250 g/ha, Postemergence) was 0, the “Redroot pigweed plant response rating” value [5, 22] was 2 and the “Rape plant response rating” value [6, 23] was 0. For the same compound, the “Rape plant response rating” value [6, 16] was 0, the “Rape plant response rating” value [6, 17] was 0 and the “Plant response rating, Rape” value [6, 18] was 6. The “Rape plant response rating” value [6, 24] was 0, the “Rape plant response rating” value [6, 19] was 0 and the “Rape plant response rating” value [6, 20] was 0. For the same compound, the “Rape plant response rating” value [6, 21] was 0, the “Plant response rating (0 to 10; 0 is no effect, 10 is complete control), Rape” value ([6]; Rate 250 g/ha, Postemergence) was 0 and the “Rape plant response rating” value [6, 22] was 2. The “Soybean plant response rating” value [7, 23] was 0, the “Soybean plant response rating” value [7, 16] was 0 and the “Soybean plant response rating” value [7, 17] was 3. For the same compound, the “Plant response rating, Soybean” value [7, 18] was 6, the “Soybean plant response rating” value [7, 19] was 2 and the “Soybean plant response rating” value [7, 20] was 3. For the same compound, the “Soybean plant response rating” value [7, 21] was 2, the “Plant response rating (0 to 10; 0 is no effect, 10 is complete control), Soybean” value ([7]; Rate 250 g/ha, Postemergence) was 5 and the “Soybean plant response rating” value [7, 22] was 4. The “B. signalgrass plant response rating” value [8, 23] was 0, the “B. signalgrass plant response rating” value [8, 16] was 1 and the “B. signalgrass plant response rating” value ([8]; Preemergence, Rate 250 g/ha, scale 0 to 10, 0 is no effect, 10 is complete control) was 7. For the same compound, the “Plant response rating, B. signalgrass” value [8, 18] was 7, the “B. signalgrass plant response rating” value [8, 24] was 0 and the “B. signalgrass plant response rating” value [8, 19] was 2. For the same compound, the “B. signalgrass plant response rating” value ([8]; Rate 125 g/ha, Postemergence, scale 0 (no effect) to 10 (complete control)) was 5, the “B. signalgrass plant response rating” value [8, 21] was 7 and the “Plant response rating (0 to 10; 0 is no effect, 10 is complete control), B. signalgrass” value ([8]; Rate 250 g/ha, Postemergence) was 5. The “B. signalgrass plant response rating” value [8, 22] was 9, the “Velvetleaf plant response rating” value [9, 23] was 0 and the “Velvetleaf plant response rating” value [9, 16] was 4. The “Velvetleaf plant response rating” value [9, 17] was 6, the “Plant response rating, Velvetleaf” value [9, 18] was 7 and the “Velvetleaf plant response rating” value [9, 19] was 0. The “Velvetleaf plant response rating” value [9, 20] was 0, the “Velvetleaf plant response rating” value [9, 21] was 5 and the “Plant response rating (0 to 10; 0 is no effect, 10 is complete control), Velvetleaf” value ([9]; Rate 250 g/ha, Postemergence) was 0. For the same compound, the “Velvetleaf plant response rating” value [9, 22] was 3, the “Morningglory plant response rating” value [10, 23] was 0 and the “Morningglory plant response rating” value [10, 16] was 0. For the same compound, the “Morningglory plant response rating” value [10, 17] was 4, the “Plant response rating, Morningglory” value [10, 18] was 8 and the “Morningglory plant response rating” value [10, 24] was 2. The “Morningglory plant response rating” value [10, 19] was 2, the “Morningglory plant response rating” value [10, 20] was 3 and the “Morningglory plant response rating” value [10, 21] was 4. For the same compound, the “Plant response rating (0 to 10; 0 is no effect, 10 is complete control), Morningglory” value ([10]; Rate 250 g/ha, Postemergence) was 6, the “Morningglory plant response rating” value [10, 22] was 6 and the “Corn plant response rating” value [11, 23] was 0. For the same compound, the “Corn plant response rating” value [11, 16] was 0, the “Corn plant response rating” value [11, 17] was 4 and the “Plant response rating, Corn” value [11, 18] was 6. The “Corn plant response rating” value [11, 24] was 0, the “Corn plant response rating” value [11, 19] was 0 and the “Corn plant response rating” value [11, 20] was 2. For the same compound, the “Corn plant response rating” value [11, 21] was 3, the “Plant response rating (0 to 10; 0 is no effect, 10 is complete control), Corn” value ([11]; Rate 250 g/ha, Postemergence) was 2 and the “Corn plant response rating” value [11, 22] was 6. For the same compound, the “Crabgrass plant response rating” value [12, 23] was 2, the “Crabgrass plant response rating” value [12, 16] was 9 and the “Crabgrass plant response rating” value [12, 17] was 10. The “Plant response rating, Crabgrass” value [12, 18] was 10, the “Crabgrass plant response rating” value [12, 24] was 0 and the “Crabgrass plant response rating” value [12, 19] was 5. The “Crabgrass plant response rating” value [12, 20] was 8, the “Crabgrass plant response rating” value [12, 21] was 10 and the “Crabgrass plant response rating” value [12, 22] was 8. The “Sugarbeets plant response rating” value [13, 23] was 0, the “Sugarbeets plant response rating” value [13, 16] was 0 and the “Sugarbeets plant response rating” value [13, 17] was 5. For the same compound, the “Plant response rating, Sugarbeets” value [13, 18] was 6, the “Sugarbeets plant response rating” value [13, 19] was 0 and the “Sugarbeets plant response rating” value [13, 20] was 0. For the same compound, the “Sugarbeets plant response rating” value [13, 21] was 2, the “Plant response rating (0 to 10; 0 is no effect, 10 is complete control), Sugarbeets” value ([13]; Rate 250 g/ha, Postemergence) was 3 and the “Sugarbeets plant response rating” value [13, 22] was 2. For the same compound, the “Nutsedge plant response rating” value [14, 23] was 0, the “Nutsedge plant response rating” value [14, 16] was 7 and the “Nutsedge plant response rating” value [14, 17] was 8. The “Plant response rating, Nutsedge” value [14, 18] was 10, the “Nutsedge plant response rating” value [14, 24] was 0 and the “Nutsedge plant response rating” value [14, 19] was 0. The “Nutsedge plant response rating” value [14, 20] was 0, the “Nutsedge plant response rating” value [14, 21] was 7 and the “Plant response rating (0 to 10; 0 is no effect, 10 is complete control), Nutsedge” value ([14]; Rate 250 g/ha, Postemergence) was 0. For the same compound, the “Nutsedge plant response rating” value [14, 22] was 2, the “Giant foxtail plant response rating” value [15, 23] was 8 and the “Giant foxtail plant response rating” value [15, 16] was 8. The “Giant foxtail plant response rating” value [15, 17] was 10, the “Plant response rating, Giant foxtail” value [15, 18] was 10 and the “Giant foxtail plant response rating” value [15, 24] was 0. The “Giant foxtail plant response rating” value [15, 19] was 8, the “Giant foxtail plant response rating” value [15, 20] was 8 and the “Giant foxtail plant response rating” value [15, 21] was 10. The “Plant response rating (0 to 10; 0 is no effect, 10 is complete control), Giant foxtail” value ([15]; Rate 250 g/ha, Postemergence) was 8 and the “Giant foxtail plant response rating” value [15, 22] was 9.

From patent publication US6737383B1, “Herbicidal oxadiazolidines” (priority 1999, dated 2004)
